The values that follow come from patent US6087375A, “Methods of treating or preventing thromboses” (priority 1999, dated 2000).

In assay [1] the target is T1, thrombin from human plasma (Homo sapiens, UniProt P00734). Put plainly: Km-based chromogenic thrombin inhibition assay (S-2238). Details: from tissue; host or cells: human plasma. The format is biochemical. As to conditions: 8 μM S-2238, 10 mU thrombin, pH 7.2, 35° C., 405 nm. The text has this:
Specifically, a Km-based chromogenic assay was first employed. […] Measurements at 405 nm are designed to detect the thrombin-induced liberation of p-nitroaniline from the S-2238 substrate. As such, an observed increase in absorbance at 405 nm directly correlates with an increase in hydrolysis of the substrate by thrombin.

Assay [2] addresses T1, thrombin from human plasma. The experiment in a line: Vmax-based thrombin inhibition assay (200 μM S-2238). It is filed as biochemical. More on the design: from tissue; host or cells: human plasma. As to conditions: 200 μM S-2238, 40 mU thrombin, pH 7.2, 25° C.
The target in assay [3] is T1, thrombin from human plasma. Put plainly: Km-based 96-well formatted fluorogenic thrombin inhibition assay.
In assay [4] the test system is anti-KLH-argatroban antibody. The experiment in a line: Sandwich ELISA using polyclonal anti-KLH-argatroban antibodies. It is filed as binding, rabbit. As to conditions: rabbit erythrocytes treated with argatroban-C6 free acid. As for the experimental part:
The reaction was quenched by adding hydroxylamine, pH 7.8 to a final concentration of 50 mM and incubating at room temperature for 10 minutes.
Rabbit anti-HSA monoclonal antibody (Boehringer/Mannheim, catalog no. 605001) diluted 1:5000 in PBS, pH 7.4 or mouse anti-hGPA monoclonal antibody (BioAtlan-tic/CRTS, mAb 5F4, diluted to 10 μg/ml in 0.1 M sodium acetate, pH 4.5 or mAb 3C10 diluted 1:500 or mAb 3E4 diluted 1:1000 in PBS, pH 7.4 - each antibody recognizes a different epitope of hGPA), were used to capture respective proteins by aliquotting 100 μl/well into a NUNC Maxisorp F96 plate (catalog no. 439454). The plates were incubated overnight at 4° C., were then blocked by the addition of 200 μl/well of 1% BSA/PBS and incubated at room temperature for 1 hour. The plates were then washed 5 times by submersion in PBS, pH 7.4.
Samples were incubated on the plates for 2 hours at room temperature and then were washed as above.
The plates were then incubated at room temperature for 30 minutes and washed as above.
Biotinylated goat anti-rabbit IgG (Vector, catalog no. BA1000) was diluted 1:1000 in 1% BSA/PBS, pH 7.4 and 100 μl/well added to all wells. The plates were incubated at room temperature for 30 minutes and washed as above.
Next, 100 μl/well of ABC-HRP (Vector, catalog no. PK4000) was added, each component diluted 1:500 in PBS, pH 7.4, with 0.1% TWEEN 20 and incubated 30 minutes at room temperature prior to use. The plates were then washed 10 times by submersion in PBS, pH 7.4.

In assay [5] the target is T1, thrombin from human plasma. The experiment in a line: Km-based fluorogenic assay for inhibition of thrombin (Example 7). It is filed as biochemical. More on the design: from tissue; host or cells: human plasma. As to conditions: FIGS. 9 and 10. The procedure:
Thrombin from human plasma was obtained from Enzyme System Products, Dublin, Calif., in glycerol:water 1:1, 11.4 mg/ml, 3800 U/mg, MW 36,700, and stored undiluted at -20° C. It was freshly diluted the day of use.
To dilute for the assay, 0.67 μl (25 Units) of thrombin was pipetted into 5 ml of 0.1 mg/ml BSA (from Pierce, Catalog No. 23209, BSA fraction V, a 2 mg/ml stock in saline with sodium azide), in cold PBS (GIBCO, Catalog No. 14190-136, without calcium chloride and magnesium chloride, pH 7.2) and briefly vortexed, yielding a stock of 5 mU thrombin/μl.
The substrate was N-tBOC-β-Benzyl-Asp-Pro-Arg-7-Amido4-Methylcoumarin HCl and was obtained from Sigma, Catalog No. B4028, Lot 122H0070, F.W. 770.3. Five mg was dissolved in […] DMSO for a 4 mM stock. The stock was stored in 200 μl aliquots at -20° C. in the dark.
An alternative substrate was N-tBOC-Val-Pro-Arg-7-Amido4-Methylcoumarin HCl and was obtained from Sigma, Catalog No. B-9385, Lot 53H0805, F.W. of free base 627.7. Five mg was dissolved in 1.863 ml DMSO for a 4 mM stock. The stock was stored in 200 μl aliquots at -20° C. in the dark.
The fluorescent standard was 7-Amido4-Methylcoumarin and was obtained from Aldrich, Catalog No. 25,737-0, MW 175.19. […]
Initial readings were taken to ensure exclusion of rogue wells with abnormally high backgrounds (λ excitation at 360 nm, bandwidth […], λ emission, 460 nm, bandwidth 40 nm). Then, 25 μl of a 10×stock of the putative inhibitor were added per well, mixed for 5 seconds and read kinetically for 10 minutes at ambient temperature to assess background interference and/or any increase in hydrolysis of substrate due to inhibitor.
The thrombin assay was then initiated by adding 25 μl of thrombin/well with a multichannel pipettor and mixed for 5 seconds. The appearence of the fluorescent product (free 7-amido-4-methylcoumarin released from the peptide by thrombin) was followed simultaneously in 48 wells (one reading per minute for 30 minutes, λ excitation at 360 nm, bandwidth 40 nm, λ emission, 460 nm, bandwidth 40 nm). […]

In the case of `CC1CNc2c(cccc2S(=O)(=O)NC(CCCNC(=N)N)C(=O)N2CCC(C)CC2C(=O)NCCCCCCCCCCCC(=O)O)C1` (stereo not drawn) [compound YL-015-10], the concentration for half-maximal inhibition (IC50) is 150 nM in assay [1], 5000 to 8000 nM in assay [2] and approximately 80 nM in assay [3].
As for `CC1CNc2c(cccc2S(=O)(=O)NC(CCCN=C(N)N)C(=O)N2CCC(C)CC2C(=O)NCCCCCC(=O)O)C1` (stereo not drawn) [compound YL-015-15], the “plate ELISA signal” value in assay [4] was “did not give a signal above background”. In addition, in assay [5], the thrombin inhibition entry is on record as “not inhibitory”. In addition, in assay [3], the IC50 was approximately 50 nM.

One may read the IC50 as the concentration at which inhibition is half-maximal.
